We go through one compound from PMC9413491, “A Novel and Cross-Species Active Mammalian INDY (NaCT) Inhibitor Ameliorates Hepatic Steatosis in Mice with Diet-Induced Obesity” (Metabolites, 2022).

For one data set, the system named is DIO mice. Put plainly: Short-term tolerability studies in the DIO mouse model. The format is in vivo. The text has this:
Next, we tested the functional activity of ETG-5773 in vivo to establish whether the effects on in vitro citrate uptake and FAS were physiologically relevant. […] Therefore, we applied pair-fed control groups to explore the pharmacological actions on metabolism without interference from food-intake effects.
[…] […] The potential for off-target effects on feeding behaviour provided the rational for including pair-fed control groups.

The nature of data set [1]: Blood-brain barrier penetration: brain versus liver concentrations. The format is in vivo. The following applies: brain vs liver.
The target of the next data set is T1, human NaDC3 (SLC13A3) (Homo sapiens, UniProt Q8WWT9).
T1 construct: expressed in transfected cells; host or cells: HEK293 (HEK-NaDC3), hygromycin selection
T1 sequence (Q8WWT9 1-602): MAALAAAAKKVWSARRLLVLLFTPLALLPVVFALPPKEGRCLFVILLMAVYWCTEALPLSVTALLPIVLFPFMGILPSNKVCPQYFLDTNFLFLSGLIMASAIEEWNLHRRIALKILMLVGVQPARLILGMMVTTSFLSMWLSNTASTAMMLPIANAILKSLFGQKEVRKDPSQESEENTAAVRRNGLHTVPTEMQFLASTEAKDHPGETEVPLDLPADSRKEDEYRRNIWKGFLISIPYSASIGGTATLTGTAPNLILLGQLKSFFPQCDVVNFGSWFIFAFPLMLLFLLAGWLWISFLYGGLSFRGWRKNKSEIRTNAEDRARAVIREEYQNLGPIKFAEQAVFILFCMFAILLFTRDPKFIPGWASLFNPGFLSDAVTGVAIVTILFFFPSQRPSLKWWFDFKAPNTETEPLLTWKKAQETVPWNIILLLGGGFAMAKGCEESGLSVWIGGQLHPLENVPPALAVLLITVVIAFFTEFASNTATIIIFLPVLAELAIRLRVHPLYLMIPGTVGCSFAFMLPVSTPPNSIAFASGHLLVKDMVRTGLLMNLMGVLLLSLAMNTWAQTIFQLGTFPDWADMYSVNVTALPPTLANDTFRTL
The data set can be described thus: [14C] succinate uptake in HEK293 cells overexpressing human NaDC3. It is filed as cell-based. An excerpt:
We obtained the compound by screening a library containing more than 50,000 highly diverse lead-like compounds from the Evotec Discovery Library (Evotec SE) and progressing initial hit-through-hit expansion and hit-to-lead optimisation phases. Compound library details are described under https://www.evotec.com/en/execute/drug-discovery-services/hit-identification (accessed on 5 August 2022). We used [14C] citrate uptake assays with HEK293 cells overexpressing recombinant human NaCT (HEK-NaCT). For confirmation, we measured citrate uptake using HepG2 cells which endogenously express NaCT. Furthermore, we measured activity on mouse Nact in a similar assay system using HEK293 cells recombinantly expressing murine Nact (HEK-Nact). We then tested the selectivity of selected compounds with another transporter of the same family—NaDC3. Selectivity was determined by a succinate uptake assay for NaDC3 using HepG2 cells or using HEK293 cells overexpressing recombinant human NaDC3.
For radiometric [14C] succinate uptake assays, we applied HEK cells overexpressing human NaDC3 and measured according to the procedure described previously, with a modified incubation buffer of HBSS buffer, supplemented with 20 mM HEPES, pH 7.4 and positive control 2,2-Dimethylsuccinic acid (Sigma-Aldrich, St. Louis, MO, USA).

Another data set addresses T2, mouse Nact (Mus musculus, UniProt Q67BT3).
T2 construct: expressed in transfected cells; host or cells: HEK293 (DSMZ), stably transfected, G418 selection
T2 sequence (Q67BT3 1-572): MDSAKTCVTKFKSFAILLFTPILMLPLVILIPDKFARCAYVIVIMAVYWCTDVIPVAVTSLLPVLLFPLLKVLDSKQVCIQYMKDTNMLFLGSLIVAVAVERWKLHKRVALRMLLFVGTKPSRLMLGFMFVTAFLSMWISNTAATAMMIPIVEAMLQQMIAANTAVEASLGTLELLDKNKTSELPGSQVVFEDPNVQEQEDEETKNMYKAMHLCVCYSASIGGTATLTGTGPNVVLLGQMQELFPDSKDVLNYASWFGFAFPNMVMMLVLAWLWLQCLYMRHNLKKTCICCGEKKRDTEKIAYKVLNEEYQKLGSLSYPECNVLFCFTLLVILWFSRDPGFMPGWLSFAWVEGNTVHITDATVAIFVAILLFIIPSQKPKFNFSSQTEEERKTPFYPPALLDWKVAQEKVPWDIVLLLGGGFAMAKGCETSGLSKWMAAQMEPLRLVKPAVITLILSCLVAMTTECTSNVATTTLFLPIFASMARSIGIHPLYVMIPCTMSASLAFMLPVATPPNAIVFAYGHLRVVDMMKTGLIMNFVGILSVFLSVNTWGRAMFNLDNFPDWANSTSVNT
The data set can be described thus: [14C] citrate uptake in HEK293 cells recombinantly expressing mouse Nact. The format is cell-based. The following applies: HEK293 overexpressing mouse Nact, citrate substrate; read-out: IC50 [14C] citrate uptake, HEK293 (mouse Nact). The text has this: (§1) We determined activity on human NaCT by measuring citrate uptake into HepG2 cells, which endogenously expressed NaCT [37] and for mouse Nact, using HEK293 cells recombinantly expressing mouse Nact (HEK-Nact). We cloned the mouse Slc13a5 cDNA encoding Nact as described previously.
(§2) For radiometric [14C] citrate uptake assays, we used Cytostar-T plates (Perkin Elmer#RPNQ0166, Waltham, MA, USA). For each assay, we seeded 20,000 HepG2 cells per well on collagen coated 384-well Cytostar-T plates or 5000 HEK293 cells per well on ploy-D-lysine coated 384-well Cytostar-T plates. On the following day, we changed culture medium to assay buffer: 120 mM NaCl, 5.4 mM KCl, 0.8 mM MgSO4, 5 mM glucose, 1.8 mM CaCl2, 25 mM Hepes, 25 mM MES, pH 6.5 (human) and pH 7.5 (mouse). We preincubated cells with compounds at 37 °C for 20 min, after which we added [14C] citrate (3 µM for HEK cells and 10 µM for HepG2 cells) and incubated cells for 50 min at 37 °C. After cooling down for 15 min at 4 °C, we measured the counts using a Microbeta2 reader system (Perkin Elmer).

In the next data set the target is T3, human NaCT (Homo sapiens, UniProt Q86YT5).
T3 construct: citrate uptake into HepG2 cells, which endogenously expressed NaCT; host or cells: HepG2
T3 sequence (Q86YT5 whole entry): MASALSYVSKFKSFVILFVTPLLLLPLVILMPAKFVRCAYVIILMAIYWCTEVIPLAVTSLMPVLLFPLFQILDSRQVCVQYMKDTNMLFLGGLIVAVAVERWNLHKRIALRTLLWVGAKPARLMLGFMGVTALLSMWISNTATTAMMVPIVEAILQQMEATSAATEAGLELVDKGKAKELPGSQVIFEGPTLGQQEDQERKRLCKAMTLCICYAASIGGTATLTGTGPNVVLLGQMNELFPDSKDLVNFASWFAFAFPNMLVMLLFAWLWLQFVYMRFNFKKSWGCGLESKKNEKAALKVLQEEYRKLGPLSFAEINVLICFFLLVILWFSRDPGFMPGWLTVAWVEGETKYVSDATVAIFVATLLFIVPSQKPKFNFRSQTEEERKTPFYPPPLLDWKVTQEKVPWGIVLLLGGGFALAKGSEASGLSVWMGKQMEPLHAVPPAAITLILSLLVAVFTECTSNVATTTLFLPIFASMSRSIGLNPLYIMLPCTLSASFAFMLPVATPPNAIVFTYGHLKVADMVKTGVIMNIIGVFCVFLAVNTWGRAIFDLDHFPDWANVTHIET
The data set can be described thus: [14C] citrate uptake in HepG2 cells endogenously expressing human NaCT. The format is cell-based.
Source text: as §1, §2

pIC50: −log10 of the molar value. Bounds are passed on as bounds.

On to `O=C(Nc1cc(Cl)cc(C(F)(F)F)c1)OCCC(F)(F)F` [ETG-5773], for which, in the data set with DIO mice (15 mg/kg twice daily), the “Tolerability of the selected dose” value was “well tolerated”. In addition, the Food intake entry in the data set with DIO mice (preliminary short-term tolerability studies, DIO mouse model) is given as “reduced food intake”. In data set [1], the “Concentration in brain relative to liver (lower)” value was found to be 30 fold. Also, the negative-log IC50 (pIC50) on human NaDC3 (SLC13A3) (HEK293 overexpressing human NaDC3, succinate substrate) is < 4.70; at mouse Nact, 6.74; on human NaCT (HepG2, human NaCT, citrate substrate) it was 6.80. For the same compound, at human NaDC3 (SLC13A3) (NaCT citrate uptake vs NaDC3 succinate uptake), the “Selectivity for NaCT against NaDC3” value is listed as “more than 100 fold”. In addition, at human NaCT (ETG-5773 more active than PF-06649298), the “In vitro activity relative to PF-06649298” value is given as “more than 100 fold”.

For orientation: pIC50 means the IC50 on a negative log10 scale, so that one unit is a factor of ten.
